From ChEMBL document CHEMBL1122832, “4-substituted 5-[m-(trifluoromethyl)phenoxy]primaquine analogues as potential antimalarial agents” (1985)
“And” between values parts separate entries of the source, which are not always exact repeats. Equal values may be shown once.

Columns and labels:
Assay type in all cases: functional
Mus musculus [1] = test: Antimalarial activity against Plasmodium berghei in mice (Mus musculus) at a dose of 640 mg/kg and activity expressed as toxic deaths on days 2-5
Plasmodium cynomolgi [2] = test: Antimalarial activity against Plasmodium cynomolgi infected Rhesus monkeys (Macaca mulatta) at 1.0 mg/kg; cured 2 of 2
Mus musculus [3] = test: Antimalarial activity against Plasmodium berghei in mice (Mus musculus) at a dose of 20 mg/kg and activity expressed as number cures surviving 60 days
Mus musculus [4] = test: Antimalarial activity against Plasmodium berghei in mice (Mus musculus) at a dose of 160 mg/kg and activity expressed as number cures surviving 60 days
Plasmodium cynomolgi [5] = test: Antimalarial activity against Plasmodium cynomolgi infected Rhesus monkeys (Macaca mulatta) at 0.1 mg/kg; cured 0 of 1
Mus musculus [6] = test: Antimalarial activity against Plasmodium berghei in mice (Mus musculus) at a dose of 40 mg/kg and activity expressed as number cures surviving 60 days
Mus musculus [7] = test: Antimalarial activity against Plasmodium berghei in mice (Mus musculus) at a dose of 640 mg/kg and activity expressed as number cures surviving 60 days
Plasmodium cynomolgi [8] = test: Antimalarial activity against Plasmodium cynomolgi infected Rhesus monkeys (Macaca mulatta) at 0.316 mg/kg dose; Cured 2 of 2
Plasmodium cynomolgi [9] = test: Antimalarial activity against Plasmodium cynomolgi infected Rhesus monkeys (Macaca mulatta) at 1.0 mg/kg;cured 0 of 2
Mus musculus [10] = test: Mean survival time of mice(Plasmodium berghei) at a dose of 160 mg/kg, total no. of mice = 5
Plasmodium cynomolgi [11] = test: Antimalarial activity against Plasmodium cynomolgi infected Rhesus monkeys (Macaca mulatta) at 1.0 mg/kg; relapses
Mus musculus [12] = test: Mean survival time of mice(Plasmodium berghei) at a dose of 640 mg/kg, total no. of mice = 5
Mus musculus [13] = test: Mean survival time of mice(Plasmodium berghei) at a dose of 40 mg/kg, total no. of mice = 5
Mus musculus [14] = test: Antimalarial activity against Plasmodium berghei in mice (Mus musculus) at a dose of 80 mg/kg and activity expressed as number cures surviving 60 days
Mus musculus [15] = test: Antimalarial activity against Plasmodium berghei in mice (Mus musculus) at a dose of 160 mg/kg and activity expressed as toxic deaths on days 2-5
Plasmodium cynomolgi [16] = test: Antimalarial activity against Plasmodium cynomolgi infected Rhesus monkeys (Macaca mulatta) at 0.1 mg/kg; relapses in 2 of 2
Mus musculus [17] = test: Antimalarial activity against Plasmodium berghei yoelii in mice (Mus musculus) at a dose of 40 mg/kg administered subcutaneously and activity expressed as cures; 5/25; settings: route subcutaneous
Mus musculus [18] = test: Mean survival time of mice(Plasmodium berghei) at a dose of 10 mg/kg, total no. of mice = 5
Mus musculus [19] = test: Antimalarial activity against Plasmodium berghei yoelii in mice (Mus musculus) at a dose of 10 mg/kg administered subcutaneously and activity expressed as cures; 6/25; settings: route subcutaneous
Plasmodium cynomolgi [20] = test: Antimalarial activity against Plasmodium cynomolgi infected Rhesus monkeys (Macaca mulatta) at 0.1 mg/kg; cured 0 of 2
Mus musculus [21] = test: Mean survival time of mice(Plasmodium berghei) at a dose of 5 mg/kg, total no. of mice = 5
Mus musculus [22] = test: Antimalarial activity against Plasmodium berghei in mice (Mus musculus) at a dose of 320 mg/kg and activity expressed as number cures surviving 60 days
Mus musculus [23] = test: Antimalarial activity against Plasmodium berghei yoelii in mice (Mus musculus) at a dose of 160 mg/kg administered by subcutaneous and activity expressed as cures; 2/25
Plasmodium cynomolgi [24] = test: Antimalarial activity against Plasmodium cynomolgi infected Rhesus monkeys (Macaca mulatta) at 0.316 mg/kg; relapses
Mus musculus [25] = test: Antimalarial activity against Plasmodium berghei yoelii in mice (Mus musculus) at a dose of 2.5 mg/kg administered by subcutaneous and activity expressed as cures; 1/5
Mus musculus [26] = test: Antimalarial activity against Plasmodium berghei yoelii in mice (Mus musculus) at a dose of 40 mg/kg administered subcutaneously and activity expressed as cures; 9/10; settings: route subcutaneous
Mus musculus [27] = test: Antimalarial activity against Plasmodium berghei yoelii in mice (Mus musculus) at a dose of 40 mg/kg administered by peroral and activity expressed as cures; 4/5; settings: route oral
Mus musculus [28] = test: Antimalarial activity against Plasmodium berghei yoelii in mice (Mus musculus) at a dose of 2.5 mg/kg administered by peroral and activity expressed as cures; 0/5; settings: route oral
Plasmodium cynomolgi [29] = test: Antimalarial activity against Plasmodium cynomolgi infected Rhesus monkeys (Macaca mulatta) at 0.316 mg/kg; cured 1 of 2
Mus musculus [30] = test: Antimalarial activity against Plasmodium berghei yoelii in mice (Mus musculus) at a dose of 160 mg/kg administered subcutaneously and activity expressed as cures; […]; settings: route subcutaneous
Plasmodium cynomolgi [31] = test: Antimalarial activity as relapses in Plasmodium cynomolgi infected Rhesus monkeys (Macaca mulatta) at 0.1 mg/kg
Mus musculus [32] = test: Antimalarial activity against Plasmodium berghei yoelii in mice (Mus musculus) at a dose of 10 mg/kg administered by peroral and activity expressed as cures; 5/5; settings: route oral
Mus musculus [33] = test: Antimalarial activity against Plasmodium berghei yoelii in mice (Mus musculus) at a dose of 10 mg/kg administered by subcutaneous and activity expressed as cures; 8/10
Mus musculus [34] = test: Antimalarial activity against Plasmodium berghei yoelii in mice (Mus musculus) at a dose of 2.5 mg/kg administered subcutaneously and activity expressed as cures; 0/5; settings: route subcutaneous
Mus musculus [35] = test: Antimalarial activity against Plasmodium berghei yoelii in mice (Mus musculus) at a dose of 40 mg/kg administered by subcutaneous and activity expressed as cures; 12/15
Mus musculus [36] = test: Antimalarial activity against Plasmodium berghei yoelii in mice (Mus musculus) at a dose of 160 mg/kg administered subcutaneously and activity expressed as cures; 10/10; settings: route subcutaneous
Mus musculus [37] = test: Mean survival time of mice(Plasmodium berghei) at a dose of 20 mg/kg, total no. of mice = 5
Mus musculus [38] = test: Antimalarial activity against Plasmodium berghei yoelii in mice (Mus musculus) at a dose of 10 mg/kg administered subcutaneously and activity expressed as cures; 9/15; settings: route subcutaneous
Mus musculus [39] = test: Antimalarial activity against Plasmodium berghei yoelii in mice (Mus musculus) at a dose of 10 mg/kg administered perorally and activity expressed as cures; 0/15; settings: route oral
Mus musculus [40] = test: Antimalarial activity against Plasmodium berghei yoelii in mice (Mus musculus) at a dose of 40 mg/kg administered by subcutaneous and activity expressed as cures; 14/15
Mus musculus [41] = test: Antimalarial activity against Plasmodium berghei yoelii in mice (Mus musculus) at a dose of 2.5 mg/kg administered by subcutaneous and activity expressed as cures; 0/10
Plasmodium cynomolgi [42] = test: Antimalarial activity against Plasmodium cynomolgi infected Rhesus monkeys (Macaca mulatta) at 1.0 mg/kg; cured 0 of 1
Mus musculus [43] = test: Antimalarial activity against Plasmodium berghei yoelii in mice (Mus musculus) at a dose of 2.5 mg/kg administered perorally and activity expressed as cures; 3/10; settings: route oral
Mus musculus [44] = test: Antimalarial activity against Plasmodium berghei yoelii in mice (Mus musculus) at a dose of 40 mg/kg administered perorally and activity expressed as cures; settings: route oral
Mus musculus [45] = test: Antimalarial activity against Plasmodium berghei yoelii in mice (Mus musculus) at a dose of 10 mg/kg administered by subcutaneous and activity expressed as cures; 10/15
Mus musculus [46] = test: Antimalarial activity against Plasmodium berghei yoelii in mice (Mus musculus) at a dose of 160 mg/kg administered by subcutaneous and activity expressed as toxic
Mus musculus [47] = test: Antimalarial activity against Plasmodium berghei yoelii in mice (Mus musculus) at a dose of 2.5 mg/kg and activity expressed as toxic
Mus musculus [48] = test: Antimalarial activity against Plasmodium berghei yoelii in mice (Mus musculus) at a dose of 10 mg/kg administered by peroral and activity expressed as cures; 3/10; settings: route oral
Mus musculus [49] = test: Antimalarial activity against Plasmodium berghei in mice (Mus musculus) at a dose of 64 mg/kg and activity expressed as toxic deaths on days 2-5
Mus musculus [50] = test: Mean survival time of mice(Plasmodium berghei) at a dose of 320 mg/kg, total no. of mice = 5
Mus musculus [51] = test: Antimalarial activity against Plasmodium berghei yoelii in mice (Mus musculus) at a dose of 160 mg/kg administered subcutaneously and activity expressed as cures; settings: route subcutaneous
Mus musculus [52] = test: Mean survival time of mice(Plasmodium berghei) at a dose of 80 mg/kg, total no. of mice = 5
Mus musculus [53] = test: Antimalarial activity against Plasmodium berghei in mice (Mus musculus) at a dose of 320 mg/kg and activity expressed as toxic deaths on days 2-5
Plasmodium cynomolgi [54] = test: Antimalarial activity against Plasmodium cynomolgi in Rhesus monkeys (Macaca mulatta) at 0.316 mg/kg; cured 0 of 2
Plasmodium cynomolgi [55] = test: Antimalarial activity against Plasmodium cynomolgi infected Rhesus monkeys (Macaca mulatta) at 1.0 mg/kg; cured 1 of 2

COc1cc(NC(C)CCCN)c2nccc(C)c2c1Oc1cccc(C(F)(F)F)c1 (stereo unspecified)
Toxic (Mus musculus [1]): 4
Cures (Plasmodium cynomolgi [2]): 2
Cures (Mus musculus [3]): 5
Cures (Mus musculus [4]): 5
Cures (Plasmodium cynomolgi [5]): 0
Cures (Mus musculus [6]): 5
Cures (Mus musculus [7]): 1
Cures (Plasmodium cynomolgi [8]): 2

C=Cc1ccnc2c(NC(C)CCCN)cc(OC)c(Oc3cccc(C(F)(F)F)c3)c12 (stereo unspecified)
Cures (Plasmodium cynomolgi [9]): 0
Delta MST (Mus musculus [10]): 3.7
Relapses (Plasmodium cynomolgi [11]): 12 and 19
Delta MST (Mus musculus [12]): 8.1
Delta MST (Mus musculus [13]): -0.1

CCc1ccnc2c(NC(C)CCCN)cc(OC)c(Oc3cccc(C(F)(F)F)c3)c12 (stereo unspecified)
Cures (Mus musculus [14]): 4
Cures (Plasmodium cynomolgi [2]): 2
Toxic (Mus musculus [15]): 3
Cures (Mus musculus [3]): 3
Cures (Mus musculus [4]): 5
Relapses (Plasmodium cynomolgi [16]): 20
Cures (Mus musculus [17]): 5
Delta MST (Mus musculus [18]): 5.3
Cures (Mus musculus [6]): 4
Cures (Mus musculus [7]): 1
Cures (Mus musculus [19]): 6
Cures (Plasmodium cynomolgi [8]): 2
Cures (Plasmodium cynomolgi [20]): 0
Delta MST (Mus musculus [21]): 1.7
Cures (Mus musculus [22]): 5
Cures (Mus musculus [23]): 2

COCc1ccnc2c(NC(C)CCCN)cc(OC)c(Oc3cccc(C(F)(F)F)c3)c12 (stereo unspecified)
Relapses (Plasmodium cynomolgi [24]): 28
Cures (Mus musculus [25]): 1
Cures (Mus musculus [26]): 9
Cures (Mus musculus [14]): 5
Cures (Plasmodium cynomolgi [2]): 2
Cures (Mus musculus [3]): 1
Cures (Mus musculus [27]): 4
Cures (Mus musculus [4]): 4
Cures (Mus musculus [28]): 0
Cures (Plasmodium cynomolgi [29]): 1
Delta MST (Mus musculus [18]): 6.6
Cures (Mus musculus [30]): 5
Relapses (Plasmodium cynomolgi [31]): 8
Cures (Mus musculus [6]): 5
Cures (Mus musculus [7]): 2
Cures (Plasmodium cynomolgi [20]): 0
Delta MST (Mus musculus [21]): 2.8
Cures (Mus musculus [32]): 5
Cures (Mus musculus [22]): 4
Cures (Mus musculus [33]): 8

COc1cc(NC(C)CCCN)c2nccc(C(OC)OC)c2c1Oc1cccc(C(F)(F)F)c1 (stereo unspecified)
Cures (Mus musculus [14]): 1
Toxic (Mus musculus [1]): 5
Cures (Mus musculus [34]): 0
Cures (Plasmodium cynomolgi [9]): 0
Cures (Mus musculus [35]): 12
Cures (Mus musculus [27]): 4
Cures (Mus musculus [4]): 3
Cures (Mus musculus [28]): 0
Relapses (Plasmodium cynomolgi [11]): 24 and 44
Cures (Mus musculus [36]): 10
Delta MST (Mus musculus [18]): 2.5
Delta MST (Mus musculus [37]): 5.5
Cures (Mus musculus [38]): 9
Delta MST (Mus musculus [21]): 1.9
Cures (Mus musculus [39]): 0
Cures (Mus musculus [22]): 2
Delta MST (Mus musculus [13]): 8.5

COc1cc(NC(C)CCCN)c2nccc(CO)c2c1Oc1cccc(C(F)(F)F)c1 (stereo unspecified)
Cures (Mus musculus [40]): 14
Cures (Mus musculus [41]): 0
Cures (Mus musculus [14]): 1
Cures (Plasmodium cynomolgi [42]): 0
Cures (Mus musculus [43]): 3
Cures (Mus musculus [44]): 10
Cures (Mus musculus [45]): 10
Toxic (Mus musculus [46]): 2
Delta MST (Mus musculus [10]): 14.8
Toxic (Mus musculus [47]): 7
Cures (Mus musculus [48]): 3
Toxic (Mus musculus [49]): 4
Delta MST (Mus musculus [18]): 1.4
Delta MST (Mus musculus [37]): 3.6
Delta MST (Mus musculus [50]): 13.1
Cures (Mus musculus [51]): 3
Delta MST (Mus musculus [21]): 0.6
Delta MST (Mus musculus [13]): 3.8

COc1cc(NC(C)CCCN)c2ncccc2c1.O=P(O)(O)O.O=P(O)(O)O (stereo unspecified) [PRIMAQUINE PHOSPHATE]
Toxic (Mus musculus [1]): 5
Delta MST (Mus musculus [52]): 9
Toxic (Mus musculus [15]): 2
Toxic (Mus musculus [53]): 5

COc1cc(NC(C)CCCN)c2ncccc2c1 (stereo unspecified) [PRIMAQUINE]
Cures (Plasmodium cynomolgi [54]): 0
Cures (Plasmodium cynomolgi [55]): 1
Cures (Plasmodium cynomolgi [20]): 0
